# Legend:
# [1] = molecular target: T1, Prostaglandin G/H synthase 1 (Ovis aries) (UniProt P05979); assay: Inhibition of prostaglandin G/H synthase 1 enzyme from ram seminal vesicles by spectrophotometric method at 10 uM
# T1 sequence (whole entry): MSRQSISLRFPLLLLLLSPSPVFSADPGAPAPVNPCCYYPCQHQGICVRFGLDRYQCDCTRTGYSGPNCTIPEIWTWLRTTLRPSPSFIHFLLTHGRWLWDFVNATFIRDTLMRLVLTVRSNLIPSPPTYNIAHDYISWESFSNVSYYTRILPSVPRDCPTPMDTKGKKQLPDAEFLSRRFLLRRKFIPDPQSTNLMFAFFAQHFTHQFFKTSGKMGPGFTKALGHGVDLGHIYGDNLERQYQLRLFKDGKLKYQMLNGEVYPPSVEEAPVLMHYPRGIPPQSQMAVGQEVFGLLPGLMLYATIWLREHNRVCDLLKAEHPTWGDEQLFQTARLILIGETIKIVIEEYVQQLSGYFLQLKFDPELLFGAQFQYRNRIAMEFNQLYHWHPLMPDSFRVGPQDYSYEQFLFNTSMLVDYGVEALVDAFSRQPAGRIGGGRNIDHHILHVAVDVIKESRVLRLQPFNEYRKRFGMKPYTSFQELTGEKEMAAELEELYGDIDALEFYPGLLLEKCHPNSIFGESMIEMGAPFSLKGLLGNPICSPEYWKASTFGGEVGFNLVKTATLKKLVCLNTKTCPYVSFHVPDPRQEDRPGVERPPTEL
# Rattus norvegicus = assay: Activity in Carrageenan induced rat paw model at 30 mg/Kg; Range = 25-45%; format: functional
# [2] = molecular target: T2, Prostaglandin G/H synthase 1 (Ovis aries, UniProt P05979); assay: Inhibition of prostaglandin G/H synthase 1 enzyme from ram seminal vesicles by spectrophotometric method
# T2 sequence (P05979 whole entry): T1 sequence (whole entry)
# [3] = molecular target: T3, Prostaglandin G/H synthase 2 (Homo sapiens, UniProt P35354); assay: Inhibition of human Prostaglandin G/H synthase 2 in sf-9 cells by spectrophotometric method; format: cell-based, Sf9
# T3 sequence (P35354 whole entry): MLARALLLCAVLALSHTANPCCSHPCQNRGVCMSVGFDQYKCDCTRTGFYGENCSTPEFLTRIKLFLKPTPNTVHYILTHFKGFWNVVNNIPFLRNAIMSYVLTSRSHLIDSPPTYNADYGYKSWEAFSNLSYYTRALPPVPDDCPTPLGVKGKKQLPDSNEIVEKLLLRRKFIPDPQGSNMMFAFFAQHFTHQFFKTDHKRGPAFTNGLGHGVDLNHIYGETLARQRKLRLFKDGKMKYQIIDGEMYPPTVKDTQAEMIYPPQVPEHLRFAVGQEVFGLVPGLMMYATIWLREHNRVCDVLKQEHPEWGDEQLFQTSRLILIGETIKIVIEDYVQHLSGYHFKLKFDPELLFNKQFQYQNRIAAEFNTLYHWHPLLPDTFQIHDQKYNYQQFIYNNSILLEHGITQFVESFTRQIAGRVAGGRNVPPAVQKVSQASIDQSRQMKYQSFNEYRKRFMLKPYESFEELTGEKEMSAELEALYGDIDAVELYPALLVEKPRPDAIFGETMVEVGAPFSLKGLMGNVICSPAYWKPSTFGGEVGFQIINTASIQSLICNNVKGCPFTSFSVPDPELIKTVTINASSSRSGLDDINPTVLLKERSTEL
# [4] = molecular target: T3, Prostaglandin G/H synthase 2; assay: Inhibition of human Prostaglandin G/H synthase 2 in sf-9 cells by spectrophotometric method
Compound,inhibition [1],further results
CS(=O)(=O)c1ccc(C(Nc2nccs2)C(=O)c2ccc(F)cc2)cc1 (centres undefined),-0%,
C[S+]([O-])c1ccc(C(Nc2nccs2)C(=O)c2ccc(F)cc2)cc1 (centres undefined),-0%,IC50 [2]: 500 µM; IC50 [3]: 2.1 µM; Activity (Rattus norvegicus): <45%
NS(=O)(=O)c1ccc(C(Nc2nccs2)C(=O)c2ccc(F)cc2)cc1 (centres undefined),-0%,
CS(=O)(=O)c1ccc(C(=O)C(Nc2nccs2)c2ccccc2)cc1 (centres undefined),10%,
C[S+]([O-])c1ccc(C(Nc2cccnc2)C(=O)c2ccc(F)cc2)cc1 (centres undefined),-0%,IC50 [2]: 50 µM; IC50 [3]: 0.5 µM; Activity (Rattus norvegicus): <45%
NS(=O)(=O)c1ccc(C(Nc2nc3ccccc3s2)C(=O)c2ccc(F)cc2)cc1 (centres undefined),23%,
C[S+]([O-])c1ccc(C(=O)C(Nc2nccs2)c2ccccc2)cc1 (centres undefined),29%,
NS(=O)(=O)c1ccc(C(Nc2ccccn2)C(=O)c2ccc(F)cc2)cc1 (centres undefined),30%,
NS(=O)(=O)c1ccc(C(Nc2ncccn2)C(=O)c2ccc(F)cc2)cc1 (centres undefined),-0%,
CSc1ccc(C(=O)C(Nc2ncccc2Cl)c2ccccc2)cc1 (centres undefined),53%,
Cc1nn(-c2ccc(S(N)(=O)=O)cc2)c2c1c(=O)[nH]c1ccc([N+](=O)[O-])cc12,,IC50 [2]: 4.7 µM; IC50 [4]: 0.24 µM

# Now from value to molecule, other results behind:
inhibition [1],Compound,further results
40%,Cc1nn(-c2ccc(S(N)(=O)=O)cc2)c2c1c(O)nc1ccc([N+](=O)[O-])cc12,Activity (Rattus norvegicus): <45%
-0%,Cc1nn(-c2ccc(S(N)(=O)=O)c(CO)c2)c2c1c(O)nc1ccccc12,
46%,Cc1nn(-c2ccccc2)c2c1c(O)nc1ccc([N+](=O)[O-])cc12,IC50 [2]: 5 µM; Activity (Rattus norvegicus): <45%; IC50 [4]: 0.55 µM
20%,Cc1nn(-c2ccc(S(N)(=O)=O)cc2)c2c1c(O)nc1ccccc12,
78%,Cc1nn(-c2ccc(S(=O)(=O)NCc3ccccc3)cc2)c2c1c(O)nc1ccc([N+](=O)[O-])cc12,
-0%,Cc1nn(-c2ccc(S(N)(=O)=O)c(CO)c2)c2c1c(O)nc1ccc([N+](=O)[O-])cc12,
82%,Cc1nn(-c2ccccc2)c2c1c(O)nc1ccccc12,

# Source: ChEMBL document CHEMBL1149214, “1,2-Diaryl-1-ethanone and pyrazolo [4,3-c] quinoline-4-one as novel selective cyclooxygenase-2 inhibitors” (Bioorg Med Chem Lett, 2004)
